Laboratory results published in patent US10167262B2, “Herbicidal substituted 3-arylpyrazoles” (FMC CORPORATION, priority 2014, dated 2019).

Key:
Assay type in all cases: in vivo
[1] = test system: green foxtail (Setaria viridis); test: Test C postemergence greenhouse test, plant response rating 0-100; conditions: for Plant response rating, Foxtail, Green: scale 0 to 100
Procedure, shortened: (§1)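 Postemergence spray of formulated test chemicals on plants 2 to 18 cm tall (1- to 4-leaf stage) grown in peat/vermiculite medium. Greenhouse hold 13 to 15 days, then visual comparison with untreated controls on a 0-100 scale (0 no effect, 100 complete control); dash means no test result.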

[2] = test system: deadnettle (henbit deadnettle, Lamium amplexicaule); test: as above; conditions: for Plant response rating, Deadnettle: scale 0 to 100
Procedure, shortened: as §1

[3] = test system: cocklebur (common cocklebur, Xanthium strumarium); test: as above; conditions: for Plant response rating, Cocklebur: scale 0 to 100
Procedure, shortened: as §1

[4] = test system: goosegrass (Eleusine indica); test: as above; conditions: for Plant response rating, Goosegrass: scale 0 to 100
Procedure, shortened: as §1

[5] = test system: bermudagrass (Cynodon dactylon); test: as above; conditions: for Plant response rating, Bermudagrass: scale 0 to 100
Procedure, shortened: as §1

[6] = test system: downy bromegrass (Bromus tectorum); test: as above; conditions: for Plant response rating, Bromegrass, Downy: scale 0 to 100
Procedure, shortened: as §1

[7] = test system: woolly cupgrass (Eriochloa villosa); test: as above; conditions: for Plant response rating, Cupgrass, Woolly: scale 0 to 100
Procedure, shortened: as §1

[8] = test system: surinam grass (Brachiaria decumbens); test: as above; conditions: for Plant response rating, Surinam Grass: scale 0 to 100
Procedure, shortened: as §1

[9] = test system: canarygrass (Phalaris minor); test: as above; conditions: for Plant response rating, Canarygrass: scale 0 to 100
Procedure, shortened: as §1

[10] = test system: ducksalad (Heteranthera limosa); test: Test B flooded paddy test, plant response rating 0-100; conditions: Flood, 250 g ai/ha; scale 0 to 100 (0 no effect, 100 complete control); 13 to 15 days
Procedure, shortened: (§2)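 Visual injury ratings against untreated controls, taken 13 to 15 days after compound was added to paddy water standing 3 cm above the soil.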

[11] = test system: barnyardgrass (Echinochloa crus-galli); test: as above; conditions: Flood, 250 g ai/ha; scale 0 to 100 (0 no effect, 100 complete control); 13 to 15 days
Procedure, shortened: as §2

[12] = test system: sedge, umbrella (small-flower umbrella sedge, Cyperus difformis); test: as above; conditions: Flood, 250 g ai/ha; scale 0 to 100 (0 no effect, 100 complete control); 13 to 15 days
Procedure, shortened: as §2

rice (Oryza sativa) = test: as above; conditions: Flood, 250 g ai/ha; scale 0 to 100 (0 no effect, 100 complete control); 13 to 15 days
Procedure, shortened: as §2

[13] = test system: barnyardgrass (Echinochloa crus-galli); test: Test C pre-/postemergence greenhouse test, plant response rating 0-100; conditions: Preemergence
Procedure, shortened: (§3)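 After treatment, pots stay in the greenhouse 13–15 days before each species is compared with untreated controls and given a 0–100 visual score. Preemergence seeds are in loam blended with sand; postemergence plants, 1–4 leaves, are in peat-based medium.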

[14] = test system: oilseed rape (Brassica napus); test: as above; conditions: Preemergence
Procedure, shortened: as §3

[15] = test system: waterhemp (common waterhemp, Amaranthus rudis); test: as above; conditions: Preemergence
Procedure, shortened: as §3

[16] = test system: waterhemp_RES2, (ALS & HPPD resistant common waterhemp, Amaranthus rudis); test: Test E postemergence greenhouse test, plant response rating 0-100; conditions: scale 0 to 100
Procedure, shortened: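 Resistant waterhemp biotypes grown in peat/vermiculite medium and treated postemergence at 2–18 cm height (1- to 4-leaf stage). Kept in greenhouse 14 to 21 days, then visually rated against untreated controls on a 0–100 scale (0 no effect, 100 complete control).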

C#CCn1cc(C(=O)c2ccccc2)c(-c2cc(Cl)cc(Cl)c2)n1 [Compound 39, [3-(3,5-dichlorophenyl)-1-(2-propyn-1-yl)-1H-pyrazol-4-yl]phenylmethanone]
Plant response rating (0 to 100), Foxtail, Green ([1]; 62 g ai/ha): 0 | Plant response rating (0 to 100), Foxtail, Green ([1]; 125 g ai/ha): 0 | Plant response rating, Foxtail, Green ([1]; 250 g ai/ha): 0 | Plant response rating, Foxtail, Green ([1]; 500 g ai/ha): 5 | Plant response rating (0 to 100), Deadnettle ([2]; 62 g ai/ha): 0 | Plant response rating (0 to 100), Deadnettle ([2]; 125 g ai/ha): 0 | Plant response rating, Deadnettle ([2]; 250 g ai/ha): 0 | Plant response rating, Deadnettle ([2]; 500 g ai/ha): 0 | Plant response rating (0 to 100), Cocklebur ([3]; 62 g ai/ha): 15 | Plant response rating (0 to 100), Cocklebur ([3]; 125 g ai/ha): 55 | Plant response rating, Cocklebur ([3]; 250 g ai/ha): 55 | Plant response rating, Cocklebur ([3]; 500 g ai/ha): 55 | Plant response rating (0 to 100), Goosegrass ([4]; 62 g ai/ha): 0 | Plant response rating (0 to 100), Goosegrass ([4]; 125 g ai/ha): 0 | Plant response rating, Goosegrass ([4]; 250 g ai/ha): 0 | Plant response rating, Goosegrass ([4]; 500 g ai/ha): 0 | Plant response rating (0 to 100), Bermudagrass ([5]; 62 g ai/ha): 0 | Plant response rating (0 to 100), Bermudagrass ([5]; 125 g ai/ha): 0 | Plant response rating, Bermudagrass ([5]; 250 g ai/ha): 0 | Plant response rating, Bermudagrass ([5]; 500 g ai/ha): 0 | Plant response rating (0 to 100), Bromegrass, Downy ([6]; 62 g ai/ha): 0 | Plant response rating (0 to 100), Bromegrass, Downy ([6]; 125 g ai/ha): 0 | Plant response rating, Bromegrass, Downy ([6]; 250 g ai/ha): 0 | Plant response rating, Bromegrass, Downy ([6]; 500 g ai/ha): 5 | Plant response rating (0 to 100), Cupgrass, Woolly ([7]; 62 g ai/ha): 0 | Plant response rating (0 to 100), Cupgrass, Woolly ([7]; 125 g ai/ha): 0 | Plant response rating, Cupgrass, Woolly ([7]; 250 g ai/ha): 0 | Plant response rating, Cupgrass, Woolly ([7]; 500 g ai/ha): 0 | Plant response rating (0 to 100), Surinam Grass ([8]; 62 g ai/ha): 0 | Plant response rating (0 to 100), Surinam Grass ([8]; 125 g ai/ha): 0 | Plant response rating, Surinam Grass ([8]; 250 g ai/ha): 0 | Plant response rating, Surinam Grass ([8]; 500 g ai/ha): 0 | Plant response rating (0 to 100), Canarygrass ([9]; 62 g ai/ha): 0 | Plant response rating (0 to 100), Canarygrass ([9]; 125 g ai/ha): 0 | Plant response rating, Canarygrass ([9]; 250 g ai/ha): 0 | Plant response rating, Canarygrass ([9]; 500 g ai/ha): 0 | Plant response rating, Ducksalad [10]: 0 | Plant response rating, Barnyardgrass [11]: 0 | Plant response rating, Sedge, Umbrella [12]: 0 | Plant response rating, Rice (rice (Oryza sativa)): 0 | Plant response rating, Barnyardgrass ([13]; 62 g ai/ha): 0 | Plant response rating, Barnyardgrass ([13]; 125 g ai/ha): 0 | Plant response rating, Barnyardgrass ([13]; 250 g ai/ha): 0 | Plant response rating, Barnyardgrass ([13]; 500 g ai/ha): 0 | Plant response rating, Oilseed Rape ([14]; 62 g ai/ha): 0 | Plant response rating, Oilseed Rape ([14]; 125 g ai/ha): 30 | Plant response rating, Oilseed Rape ([14]; 250 g ai/ha): 50 | Plant response rating, Oilseed Rape ([14]; 500 g ai/ha): 80 | Plant response rating, Waterhemp ([15]; 62 g ai/ha): 75 | Plant response rating, Waterhemp ([15]; 125 g ai/ha): 100 | Plant response rating, Waterhemp ([15]; 250 g ai/ha): 100 | Plant response rating, Waterhemp ([15]; 500 g ai/ha): 100 | Plant response rating, Waterhemp_RES2 ([16]; 31 g ai/ha): 70 | Plant response rating, Waterhemp_RES2 ([16]; 62 g ai/ha): 75 | Plant response rating, Waterhemp_RES2 ([16]; 125 g ai/ha): 85 | Plant response rating, Waterhemp_RES2 ([16]; 250 g ai/ha): 90 | Plant response rating, Waterhemp_RES2 ([16]; 500 g ai/ha): 90
